# Experimental data as given in patent US20170166870A1, “HUMAN HEPATIC 3D CO-CULTURE MODEL AND USES THEREOF” (Vrije Universiteit Brussel, priority 2014, published 2017).
# Values joined by “and” are separate entries in the source; they are usually repeats but may differ in a detail not shown here. Equal values may be shown once.
# Columns and labels:
# 3D HepaRG/HSC co-culture [1] = assay: Pro-collagen measurement in culture supernatant (Type I C-Peptide); format: cell-based, human; settings: upon APAP incubation, 24 h
# Method: (§1) Samples for pro-collagen measurement were five times concentrated using 10 kD Vivaspin 500 ultrafiltration columns (VWR, Radnor, Pa.), the resulting supernatant was analysed for the presence of Type I C-Peptide using the TAKARA (Chanteloup-en-Brie, France) kit.
# 3D HepaRG mono-culture [2] = assay: as above; format: cell-based, human; settings: upon APAP incubation, 24 h
# Method: as §1
# [3] = system: hepatic stellate cells isolated from mice; assay: Acute and chronic APAP liver injury model, HSC activation markers and collagen deposition; format: in vivo, mouse
# Description: Male balbC and C57BL/6 mice were used for all experiments; animals were housed in a controlled environment with free access to chow and water. The experimental protocol was approved by the institutional Animal Care and Use Committee of Vrije Universiteit Brussel, permit number 14-212-2, and National Institutes of Health principles of laboratory animal care (NIH publication 86-23, revised 1995) were followed. Acute and chronic models for liver fibrosis were used on mice of age 7-8 weeks. Acute injury was induced by a single dose of Acetaminophen (APAP) of 50; 150; 300 or 500 mg APAP/kg weight. Chronic injury was induced by repeated injections of APAP twice per week for 4 weeks. Hepatic stellate cells were collected at the end of the treatment. Isolation of stellate cells was done using FACS, based on UV-positivity. After isolation cells were not cultured, but immediately used for mRNA analysis. […] For quantitative real-time polymerase chain reaction (qPCR), GoTaq QPCR Master Mix with BRYTE green (Promega, Madison, Wis.) was used, subjected to qPCR in a 7500 real time PCR system and analysed using System SDS software v2.0.5 (Applied Biosystems), using GAPDH for normalisation. Reliability of GAPDH as house-keeping gene was determined using Normfinder (Andersen et al., 2004; Cancer Res 64(15): 5245-5250) to produce the ΔCT values. […]
# 3D HepaRG/HSC co-culture [4] = assay: mRNA expression of HSC activation markers (qPCR) after APAP incubation; format: cell-based, human; settings: additional 3 days in culture upon APAP washout
# Method: (§2) APAP toxicity assay was performed in 3D HepaRG/co-culture as well as in 3D HepaRG monoculture. For 24 h, starting at day 20, cells were exposed to a range of APAP concentrations between 0.5 and 80 mM, keeping cells with the solvent (0.1% DMSO) as a control. For some experiments the culture medium was supplemented with 2.5 mM valproic acid (VPA sodium salt, Sigma-Aldrich) or with cytokine mixture (Raicevic et al.,2012)-interleukin (IL)-1β 25 ng/mL (Peprotech, Rocky Hill, N.J., USA), interferon (IFN)-γ 10^3 U/mL, tumor necrosis factor (TNF)-a 50 ng/mL, and IFN-α 3·10^3 U/mL (all from Prospec, Inc., East Brunswick, N.J., USA). For the recovery assay, at the end of APAP incubation, cells were washed using HepaRG culture 0% DMSO medium and kept in the same medium for 3 more days.
# (§3) At the end of the incubation period, 5 spheroids per condition were pooled and lysed for RNA analyses, while the remaining spheroids per condition were lysed individually for viability analysis using the Cell titer Glo kit (Promega) for ATP measurements following the instructions of the manufacturer.
# (§4) Total RNA was extracted from cells using the ReliaPrep RNA Cell Miniprep System (Promega, Madison, Wis.). Reverse-transcription using the Revert Aid Kit (ThermoFisher Scientific, St. Leon-Rot, Germany) allowed conversion of RNA to cDNA. The RT reaction was performed at 25° C. for ten minutes followed by 30 minutes at 50° C. For quantitative real-time polymerase chain reaction (qPCR), GoTaq QPCR Master Mix with BRYTE green (Promega, Madison, Wis.) was used, subjected to qPCR in a 7500 real time PCR system and analysed using System SDS software v2.0.5 (Applied Biosystems), using GAPDH for normalisation.
# 3D HepaRG mono-culture [5] = assay: as above; format: cell-based, human; settings: 20 mM APAP, 24h, Assays 1-3
# Method: as §2, §3, §4
# 3D HepaRG/HSC co-culture [6] = assay: Single and repeated exposure, cell viability (% ATP), serum-free medium; format: cell-based, human; settings: Homo sapiens, HepaRG, serum-free medium
# Method: Culture medium. Day 0 cells were resuspended in HepaRG thawing medium and from day 1 to 21 cells were kept in the HepaRG culture medium 0% DMSO, until day 8. For the repeated versus single compound exposure assays, on day 8, the HepaRG culture medium 0% DMSO was replaced by the Serum-free HepaRG maintenance medium described in Klein et. al. 2013 (HepaRG Induction/Toxicity medium, DMSO 0.5% (v/v), 2 μg/ml of epidermal growth factor and 10 μg/ml of hepatocyte growth factor) and kept in this medium until the end of culture.
# Single and repeated exposure. For the single and repeated compound exposure cell spheroids (3D HepaRG/HSC, 3D HepaRG and 3D HSC) were exposed respectively on day 20 for 24 h or every second day from day 8 to day 21 in serum-free medium with no additional solvent. Cells were exposed to a range of 8 concentrations between 0.5 and 80 mM for APAP single-dose, 0.125 and 40 mM for APAP repeated-dose, 0.3 and 500 μM Allyl Alcohol (AA, Sigma-Aldrich), 1.9 and 1000 μM Methotrexate (MTX, Pfizer, NY, USA). For the recovery assay, on day 21, cells were washed using serum-free medium and kept for 3 extra days.
# Cell viability assay was performed by measuring ATP production upon individual spheroid exposure to the different concentrations of the test compound. Cell spheroids were lysed individually for viability analysis using the Cell titer Glo kit (Promega) following the instructions of the manufacturer. Luminescence values were converted into percentage of ATP by comparison with controls and converted into dose-response curves using Prism 5 software.
smiles,measurement,setting,value
"CC(=O)Nc1ccc(O)cc1 [APAP, Acetaminophen]",collagen secretion (C-terminal pro-collagen in supernatant),3D HepaRG/HSC co-culture [1],significant increase of collagen secretion
same,collagen secretion (C-terminal pro-collagen in supernatant),3D HepaRG mono-culture [2],not observed
same,activation marker gene expression in isolated HSC,"[3]; acute and chronic exposure, doses equal or higher than 300 mg/kg weight",significantly increase of the activation marker gene expression
same,fibrosis profile at the protein level (collagen),[3]; chronic exposure (4 weeks),deposition of collagen around the portal area with septa formation
same,HSC activation markers after washout,3D HepaRG/HSC co-culture [4],decrease of the HSC activation markers
same,Col1a1 mRNA fold increase,3D HepaRG mono-culture [5],4.80 +/− 4.83 fold and 3.01 +/− 0.06 fold
same,aSMA mRNA fold increase,3D HepaRG mono-culture [5],0.69 +/− 0.09 fold and 1.06 +/− 0.13 fold
same,EC50,"3D HepaRG/HSC co-culture [6]; repeated exposure, day 8 to day 21",2.25 ± 0.35 mM
same,EC50,"3D HepaRG/HSC co-culture [6]; single exposure, 24 h on day 20",10.4 ± 2.3 mM
